Assay results from patent US12234238B2, “Antimicrobial compounds and methods of making and using the same” (BIOVERSYS AG, priority 2017, dated 2025).

Assays:
[1] = system: Staphylococcus aureus (S. aureus) 11540 strain; assay: standard microdilution assay to determine minimum inhibitory concentrations (MICs), S. aureus; assay type: cell-based
Method: (§1) The in vitro activity of the compounds of the present disclosure can be determined. Antimicrobial testing is typically performed to determine the minimum inhibitory concentration (MIC). Minimum inhibitory concentrations (MICs) are determined by the microdilution method in a final volume of 100 μl according to protocols outlined by The Clinical and Laboratory Standards Institute (CLSI). Performance standards for reference strains are assessed within the same experimental design to maintain quality control. See, for example, Clinical Laboratory Standards Institute: Methods for dilution antimicrobial susceptibility tests for bacteria that grow aerobically M7-A8. Approved Standard-Eighth Edition. Wayne, PA: CLSI; December 2008: and Clinical Laboratory Standards Institute: Performance Standards for Antimicrobial Susceptibility Testing M100-S20; Approved Standard-Twentieth Edition. Wayne, PA: CLSI; June 2010. The compounds of the present disclosure were tested for antimicrobial activity. The Compounds 1-122 were run against Eschericia coli (E. coli) strain ATCC25922 and against Staphylococcus aureus (S. aureus) 11540 strain using a standard microdilution assay to determine minimum inhibitory concentrations (MICs). […] It will be recognized by one skilled in the art that the compounds can be assessed against other bacterial organisms and that the presentation of data for activity against Eschericia coli and Staphylococcus aureus are illustrative and in no way is intended to limit the scope of the present disclosure. The compounds of the present disclosure can be assayed against a range of other microorganisms depending upon the performance activity desired to be gathered. Furthermore, the “+” and “−” representation and the selection of a cutoff value of 16 micrograms/mL is also illustrative and in no way is intended to limit the scope of the present disclosure.

[2] = system: Eschericia coli (E. coli) strain ATCC25922; assay: standard microdilution assay to determine minimum inhibitory concentrations (MICs), E. coli; assay type: cell-based; conditions: Escherichia coli
Method: as §1

MIC [1] [µg/mL] | MIC [2] [µg/mL] | Compound
≤ 16 | ≤ 16 | C[C@@H](N)CCCN1CC(F)(F)CC1c1cc2cn(-c3ccc([C@@H]4CCC[C@@H](CCSC(=N)N)N4)cc3)c(=O)nc2[nH]1 (stereo partly shown) [Compound 71]
≤ 16 | ≤ 16 | C[C@H](N)CCCN1CCC=C(c2cc3cn(-c4ccc([C@@H]5CCC[C@@H](CCSC(=N)N)N5)cc4)c(=O)nc3[nH]2)C1 [Compound 73]
≤ 16 | ≤ 16 | C[C@@H](N)CCCN1CC(C)(C)CC1c1cc2cn(-c3ccc([C@@H]4CCC[C@@H](CCSC(=N)N)N4)cc3)c(=O)nc2[nH]1 (stereo partly shown) [Compound 74]
≤ 16 | ≤ 16 | C[C@H](N)CCCN1CC=C(c2cc3cn(-c4ccc([C@@H]5CCC[C@@H](CCSC(=N)N)N5)cc4)c(=O)nc3[nH]2)C1 [Compound 75]
≤ 16 | ≤ 16 | C[C@@H](N)CCCN1C[C@H](Cc2ccccc2)CC1c1cc2cn(-c3ccc([C@@H]4CCC[C@@H](CCSC(=N)N)N4)cc3)c(=O)nc2[nH]1 (stereo partly shown) [Compound 76]
> 16 | ≤ 16 | C[C@@H](N)CCCN1C(c2cc3cn(-c4ccc([C@@H]5CCC[C@@H](CCSC(=N)N)N5)cc4)c(=O)nc3[nH]2)CC[C@@H]1c1ccccc1 (stereo partly shown) [Compound 77]
≤ 16 | ≤ 16 | CC(C[C@@H]1CCC[C@@H](c2ccc(-n3cc4cc(-c5cc(CCC[C@H](C)N)cc(Cl)c5F)[nH]c4nc3=O)cc2)N1)SC(=N)N (stereo partly shown) [Compound 78]
≤ 16 | ≤ 16 | COC[C@H](N)CCCc1cc(Cl)c(F)c(-c2cc3cn(-c4ccc([C@@H]5CCC[C@@H](CCSC(=N)N)N5)cc4)c(=O)nc3[nH]2)c1 [Compound 80]
≤ 16 | ≤ 16 | C[C@@H](N)CCCN1C[C@H](CO)CC1c1cc2cn(-c3ccc([C@@H]4CCC[C@@H](CCSC(=N)N)N4)cc3)c(=O)nc2[nH]1 (stereo partly shown) [Compound 81]
≤ 16 | ≤ 16 | CCc1cc(CCC[C@H](C)N)cc(-c2cc3cn(-c4ccc([C@@H]5CCC[C@@H](CCSC(=N)N)N5)cc4)c(=O)nc3[nH]2)c1Cl [Compound 82]
≤ 16 | ≤ 16 | CN[C@H]1CNC(c2cc3cn(-c4ccc([C@@H]5CCC[C@@H](CCSC(=N)N)N5)cc4)c(=O)nc3[nH]2)C1 (stereo partly shown) [Compound 83]
≤ 16 | ≤ 16 | CC(C)c1cc(CCC[C@H](C)N)cc(-c2cc3cn(-c4ccc([C@@H]5CCC[C@@H](CCSC(=N)N)N5)cc4)c(=O)nc3[nH]2)c1F [Compound 84]
≤ 16 | ≤ 16 | CCc1cc(CCC[C@H](C)N)cc(-c2cc3cn(-c4ccc([C@@H]5CCC[C@@H](CCSC(=N)N)N5)cc4)c(=O)nc3[nH]2)c1F [Compound 85]
≤ 16 | ≤ 16 | C[C@H](N)CCCc1cc(-c2cc3cn(-c4ccc([C@@H]5CCC[C@@H](CCSC(=N)N)N5)cc4)c(=O)nc3[nH]2)cc(C(C)(C)C)c1 [Compound 86]
≤ 16 | ≤ 16 | CCc1cc(CCC[C@H](C)N)cc(-c2cc3cn(-c4ccc([C@@H]5CCC[C@@H](CCSC(=N)N)N5)cc4)c(=O)nc3[nH]2)c1 [Compound 87]
≤ 16 | ≤ 16 | N=C(N)SCC[C@@H]1CCC[C@@H](c2ccc(-n3cc4cc(C5C[C@@H](N)CN5)[nH]c4nc3=O)cc2)N1 (stereo partly shown) [Compound 88]
≤ 16 | ≤ 16 | C[C@H](N)CCCc1cc(-c2cc3cn(-c4ccc([C@@H]5CCC[C@@H](CCSC(=N)N)N5)cc4)c(=O)nc3[nH]2)cc(C(C)(F)F)c1 [Compound 89]
≤ 16 | ≤ 16 | CC(C)CN1[C@H](CCSC(=N)N)CCC[C@H]1c1ccc(-n2cc3cc(-c4cc(CCC[C@H](C)N)cc(Cl)c4F)[nH]c3nc2=O)cc1 [Compound 90]

MIC [1] [µg/mL] | MIC [2] [µg/mL] | Compound
≤ 16 | ≤ 16 | CSCCN1[C@H](CCSC(=N)N)CCC[C@H]1c1ccc(-n2cc3cc(-c4cc(CCC[C@H](C)N)cc(Cl)c4F)[nH]c3nc2=O)cc1 [Compound 91]
≤ 16 | ≤ 16 | CC(=O)c1cc(CCC[C@H](C)N)cc(-c2cc3cn(-c4ccc([C@@H]5CCC[C@@H](CCSC(=N)N)N5)cc4)c(=O)nc3[nH]2)c1 [Compound 92]
≤ 16 | ≤ 16 | C[C@H](N)CCCc1cc(-c2cc3cn(-c4ccc([C@@H]5CCC[C@@H](CCSC(=N)N)N5)cc4)c(=O)nc3[nH]2)cc2c1CCCC2 [Compound 93]
≤ 16 | ≤ 16 | C=CCCN1[C@H](CCSC(=N)N)CCC[C@H]1c1ccc(-n2cc3cc(-c4cc(CCC[C@H](C)N)cc(Cl)c4F)[nH]c3nc2=O)cc1 [Compound 94]
≤ 16 | ≤ 16 | CC(Br)CCN1[C@H](CCSC(=N)N)CCC[C@H]1c1ccc(-n2cc3cc(-c4cc(CCC[C@H](C)N)cc(Cl)c4F)[nH]c3nc2=O)cc1 (stereo partly shown) [Compound 95]
≤ 16 | ≤ 16 | COC(=O)CN1[C@H](CCSC(=N)N)CCC[C@H]1c1ccc(-n2cc3cc(-c4cc(CCC[C@H](C)N)cc(Cl)c4F)[nH]c3nc2=O)cc1 [Compound 96]
≤ 16 | > 16 | COCCN1[C@H](CCSC(=N)N)CCC[C@H]1c1ccc(-n2cc3cc(-c4cc(CCC[C@H](C)N)cc(Cl)c4F)[nH]c3nc2=O)cc1 [Compound 97]
≤ 16 | ≤ 16 | C[C@H](N)CCCc1cc(Cl)c(F)c(-c2cc3cn(-c4ccc([C@@H]5CCC[C@@H](CCSC(=N)N)N5CCF)cc4)c(=O)nc3[nH]2)c1 [Compound 98]
≤ 16 | ≤ 16 | C[C@H](N)CCCc1cc(-c2cc3cn(-c4ccc([C@@H]5CCC[C@@H](CCSC(=N)N)N5)cc4)c(=O)nc3[nH]2)cc(C2CC2)c1 [Compound 99]
≤ 16 | ≤ 16 | C[C@H](N)CCCc1cc(-c2cc3cn(-c4ccc([C@@H]5CCC[C@@H](CCSC(=N)N)N5)cc4)c(=O)nc3[nH]2)cc(C2CCCC2)c1 [Compound 100]
≤ 16 | ≤ 16 | C[C@@H](CO)CN1[C@H](CCSC(=N)N)CCC[C@H]1c1ccc(-n2cc3cc(-c4cc(CCC[C@H](C)N)cc(Cl)c4F)[nH]c3nc2=O)cc1 [Compound 101]
≤ 16 | ≤ 16 | C[C@H](N)CCCc1cc(Cl)c(F)c(-c2cc3cn(-c4ccc([C@@H]5CCC[C@@H](CCSC(=N)N)N5CCC5CCOCC5)cc4)c(=O)nc3[nH]2)c1 [Compound 102]
≤ 16 | ≤ 16 | C[C@H](N)CCCc1cc(Cl)c(F)c(-c2cc3cn(-c4ccc([C@@H]5CCC[C@@H](CCSC(=N)N)N5CCC5CC5)cc4)c(=O)nc3[nH]2)c1 [Compound 103]
≤ 16 | ≤ 16 | CCc1c(F)c(CCC[C@H](C)N)cc(-c2cc3cn(-c4ccc([C@@H]5CCC[C@@H](CCSC(=N)N)N5)cc4)c(=O)nc3[nH]2)c1F [Compound 104]
≤ 16 | ≤ 16 | C[C@H](CO)CN1[C@H](CCSC(=N)N)CCC[C@H]1c1ccc(-n2cc3cc(-c4cc(CCC[C@H](C)N)cc(Cl)c4F)[nH]c3nc2=O)cc1 [Compound 105]
≤ 16 | ≤ 16 | C[C@H](N)CCCc1cc(Cl)c(F)c(-c2cc3cn(-c4ccc([C@@H]5CCC(O)[C@@H](CCSC(=N)N)N5C)cc4)c(=O)nc3[nH]2)c1 (stereo partly shown) [Compound 106]
≤ 16 | ≤ 16 | C[C@H](N)CCCc1cc(Cl)c(F)c(-c2cc3cn(-c4ccc([C@H]5C[C@H](CCSC(=N)N)CCN5C)cc4)c(=O)nc3[nH]2)c1 [Compound 111]
